Results taken from paper PMC9246869, “Allosteric inhibition of PPM1D serine/threonine phosphatase via an altered conformational state” (Nature Communications, 2022).
Values joined by “and” are separate entries in the source; they are usually repeats but may differ in a detail not shown here. Equal values may be shown once. Read-outs that look alike come from different tables or passages of the source.

Experiments:
[1] = target: T1, PPM1DΔflap (Homo sapiens, UniProt O15297, DEL219-231/DEL235-284/E287S/S285N); assay: Isothermal titration calorimetry (ITC); assay type: binding; conditions: Sup Fig 5A
T1 construct: PPM1D1–218-GGSNGS-288–420 (PPM1D∆flap); His(6)-SUMO (N, cleaved yes); made in house; host or cells: E. coli BL21 (DE3)
T1 sequence (O15297 with tags, fused parts or gaps DEL219-231/DEL235-284/S285N/E287S): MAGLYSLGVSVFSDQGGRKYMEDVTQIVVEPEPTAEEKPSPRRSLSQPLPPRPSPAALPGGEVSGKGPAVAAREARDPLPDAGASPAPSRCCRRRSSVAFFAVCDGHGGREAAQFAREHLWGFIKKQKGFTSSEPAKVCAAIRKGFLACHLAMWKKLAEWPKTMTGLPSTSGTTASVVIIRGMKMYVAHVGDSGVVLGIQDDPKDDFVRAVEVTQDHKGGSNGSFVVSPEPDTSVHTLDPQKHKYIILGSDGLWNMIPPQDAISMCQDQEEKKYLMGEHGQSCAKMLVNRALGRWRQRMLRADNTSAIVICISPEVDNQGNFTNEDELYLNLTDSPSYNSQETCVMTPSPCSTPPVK
Protocol: (§1) Assessments of the analog of GSK2830371 (analog 1d) binding to wild-type and mutant proteins were conducted using an Auto-iTC200 microcalorimeter (Malvern) (see section on synthesis of analog 1d below). The protein was dialyzed extensively into 25 mM HEPES (pH 7.4), 150 mM NaCl, 10 mM MgCl2 and 1 mM TCEP. The dialyzed protein was used to prepare fresh working solutions of protein (20 µM) and analog 1d (200 µM) in 2% DMSO (v/v) in the same buffer. Titrations were performed at 25 °C and consisted of a single initial injection of 0.4 µL, followed by 19 injections of 2 µL of compound into a sample cell containing wild-type or mutant PPM1D, with an interval of 150 s between successive injections. The reference power and stirring speed were set at […] and 1000 RPM, respectively. Heat of dilution and mixing were obtained from injections of analog 1d into ITC buffer lacking protein and subtracted from the integrated data before curve fitting. Thermodynamic data were analyzed using Origin 7.0 software and fitted by non-linear regression to the model for a single binding site.

[2] = target: T2, PPM1DΔhinge (Homo sapiens, UniProt O15297, DEL155-163/G166S/M164G/T165G); assay: Isothermal titration calorimetry (ITC); assay type: binding; conditions: Sup Fig 5C
T2 construct: PPM1D1–154-GGS-167–420 (PPM1D∆hinge); His(6)-SUMO (N, cleaved yes); made in house; host or cells: E. coli BL21 (DE3)
T2 sequence (O15297 with tags, fused parts or gaps DEL155-163/M164G/T165G/G166S): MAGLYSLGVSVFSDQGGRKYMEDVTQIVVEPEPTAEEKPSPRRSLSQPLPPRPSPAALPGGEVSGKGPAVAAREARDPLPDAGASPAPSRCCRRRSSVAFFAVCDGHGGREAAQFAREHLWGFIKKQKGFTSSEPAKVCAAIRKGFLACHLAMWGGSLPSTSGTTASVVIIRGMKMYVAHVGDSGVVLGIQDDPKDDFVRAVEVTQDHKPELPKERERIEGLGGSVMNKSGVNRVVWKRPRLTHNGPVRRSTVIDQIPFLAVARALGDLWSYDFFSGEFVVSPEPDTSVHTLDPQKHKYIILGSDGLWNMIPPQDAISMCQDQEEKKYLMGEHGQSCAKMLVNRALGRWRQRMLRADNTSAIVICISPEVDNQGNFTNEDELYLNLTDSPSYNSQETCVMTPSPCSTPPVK
Protocol: as §1

[3] = target: T2, PPM1DΔhinge; assay: FDP (fluorescein diphosphate) enzymatic assay; assay type: biochemical; conditions: for FDP Assay, signal relative to 0 nM GSK (=100): PPM1DΔHinge, individual runs, listed as GSK
Protocol: The FDP assay was adapted from reported protocol with minor modifications. Fluorescein diphosphate tetra-ammonium salt (CAS 217305-49-2) was purchased from AAT Bioquest (Cat No.11600). The assay was carried out on a 384-well plate (Corning Cat No.3575) with assay buffer containing 50 mM Tris (pH 7.5), 50 mM NaCl, 30 mM MgCl2, 0.01% tween 20, and 2% DMSO. Reactions were initiated with the addition of FDP to a solution containing wild-type PPM1D or one of its variants, to a final concentration of 5 nM for PPM1D and 100 μM for FDP (or as indicated in Kcat/KM measurements). A fluorescent signal was detected on a Spectramax microplate reader (485/530 nm) for the next 15 min at room temperature with an interval for data collection of 45 s. For the IC50 measurement, the compound was pre-incubated with PPM1D for 1 h before addition of the substrate.

[4] = target: T1, PPM1DΔflap; assay: Differential scanning calorimetry (DSC); assay type: binding; conditions: Supplementary Fig. 5B
Protocol: DSC thermograms were recorded in MicroCal DSC from Malvern with an autosampler. For DSC experiments the purified protein constructs were extensively dialyzed against 25 mM HEPES pH 7.5, 10 mM MgCl2, 150 mM NaCl and 1 mM TCEP. The experiments were performed using 0.4 mg/mL concentration of wild-type or mutant protein (8.5–8.9 µM), with and without GSK2830371 compound at 40 µM and 2% DMSO (v/v). The respective reference scans were run under identical DSC set up conditions and subtracted from each sample scan. The program was run in a continuous acquisition mode from 25 °C to 90 °C at a rate of 120 °C/h The heat capacity curves and midpoint temperature (Tm) were analyzed using Origin 7.0 software.

[5] = Solubility; assay type: physicochemical; conditions: precluded ITC
[6] = ITC stoichiometry, average of 2 trials

Cc1ncc(Cl)cc1NCc1ccc(C(=O)N[C@@H](CC2CCCC2)C(=O)NC2CC2)s1 [GSK2830371]
N Average [1, 6]: 1.11
DH Average ([1]; ITC, average of 2 trials): -14.43 kcal/mol
DS Average ([1]; ITC, average of 2 trials): -12.15 cal/mol/deg
Kd ([1]; ITC, average of 2 trials, read-out: Kd Average): 11.9 nM
DH ([1]; ITC, individual trials): -14.15 kcal/mol and -14.71 kcal/mol
DS ([1]; ITC, individual trials): -11.3 cal/mol/deg and -13 cal/mol/deg
Kd ([1]; ITC, individual trials, read-out: Kd): 12.2 nM and 11.5 nM
N Average [2, 6]: 0.8785
DH Average ([2]; ITC, average of 2 trials): -3.817 kcal/mol
DS Average ([2]; ITC, average of 2 trials): 13.65 cal/mol/deg
DH ([2]; ITC, individual trials): -3.047 kcal/mol and -4.587 kcal/mol
DS ([2]; ITC, individual trials): 16.6 cal/mol/deg and 10.7 cal/mol/deg
increase of IC50 in FDP assay upon hinge deletion ([3]; PPM1DΔhinge versus PPM1D1–420): 100 fold
FDP Assay, signal relative to 0 nM GSK (=100) ([3]; [GSK] 9.76562 nM): 99.774 and 81.7509
FDP Assay, signal relative to 0 nM GSK (=100) ([3]; [GSK] 19.5312 nM): 74.1093 and 82.0598
FDP Assay, signal relative to 0 nM GSK (=100) ([3]; [GSK] 39.0625 nM): 92.7672 and 94.3849
FDP Assay, signal relative to 0 nM GSK (=100) ([3]; [GSK] 78.125 nM): 88.4223 and 95.7187
FDP Assay, signal relative to 0 nM GSK (=100) ([3]; [GSK] 156.25 nM): 86.3292 and 93.2128
FDP Assay, signal relative to 0 nM GSK (=100) ([3]; [GSK] 312.5 nM): 78.7193 and 77.5806
FDP Assay, signal relative to 0 nM GSK (=100) ([3]; [GSK] 625 nM): 74.7657 and 65.5885
FDP Assay, signal relative to 0 nM GSK (=100) ([3]; [GSK] 1250 nM): 60.0936 and 55.4697
FDP Assay, signal relative to 0 nM GSK (=100) ([3]; [GSK] 2500 nM): 47.8958 and 40.0931
FDP Assay, signal relative to 0 nM GSK (=100) ([3]; [GSK] 5000 nM): 6.587 and 19.2353
FDP Assay, signal relative to 0 nM GSK (=100) ([3]; [GSK] 10000 nM): 0.167 and 0.2855
thermal shift by DSC [4]: +8.5 °C
solubility (in words) [5]: relatively low solubility
